# Source: publication PMC11758220, “Identification of a Privileged Scaffold for Inhibition of Sterol Transport Proteins through the Synthesis and Ring Distortion of Diverse, Pseudo-Natural Products” (ACS Central Science, 2025)
# Tests used:
# [1] = Stability test of spirooxepinoindole in DMSO and FP assay buffer (LC-LRMS); assay type: physicochemical
# Method: Stability test of spirooxepinoindole
# The stability of the spirooxepinoindoles in dimethyl sulfoxide and in the assay buffer was tested to be […]
# A sample in the FP assay buffer was prepared from the dimethyl sulfoxide stock solution of compound 15b. The dimethyl sulfoxide stock solution was prepared 2021.12.10, and the sample in the assay buffer was prepared 2022.09.28. The samples were monitored by LC-LRMS over time to look for degradation. Both acidic and basic LC-LRMS runs were used since acidic conditions could catalys e the re-condensation of potential hydrolysed spirooxepinoindoles.
# Sample: Compound 15b in FP assay buffer: 20 mM HEPES, 300 mM NaCl, 0.01 %v/v Tween -20, 0.5 %v/v glycerol, 2 mM DTT. Concentration: 1.7 mM.
# Figure S6: LC-LRMS trace of the stability test of spirooxepinoindole 15b in FP assay buffer measured using the acidic run. (a) UV chromatogram after zero hours, (b) UV chromatogram after four hours, (c) UV chromatogram after 20 hours, (d) MS spectrum.
# LC-LRMS (ESI+) m/z: 332.0 found for [M+H]+ for 15b, 332.1 calcd. For C17H19BrNO+. […]
# Figure S7: LC-LRMS trace of the stability test of spirooxepinoindole 15b in FP assay buffer measured using the basic run. (a) UV chromatogram after zero hours, (b) UV chromatogram after four hours, (c) UV chromatogram […]
# for 20 hours showing no sign of degradation (Figure S6 and Figure S7). […]
# [2] = target: T1, ORP1 (Homo sapiens, UniProt Q9BXW6); test: Effect on intrinsic protein fluorescence, ORP1; conditions: protein 1 µM, excitation 280 nm
# T1 construct: ORP1(534-950); host or cells: E. coli BL21(DE3)
# T1 sequence (Q9BXW6 534-950): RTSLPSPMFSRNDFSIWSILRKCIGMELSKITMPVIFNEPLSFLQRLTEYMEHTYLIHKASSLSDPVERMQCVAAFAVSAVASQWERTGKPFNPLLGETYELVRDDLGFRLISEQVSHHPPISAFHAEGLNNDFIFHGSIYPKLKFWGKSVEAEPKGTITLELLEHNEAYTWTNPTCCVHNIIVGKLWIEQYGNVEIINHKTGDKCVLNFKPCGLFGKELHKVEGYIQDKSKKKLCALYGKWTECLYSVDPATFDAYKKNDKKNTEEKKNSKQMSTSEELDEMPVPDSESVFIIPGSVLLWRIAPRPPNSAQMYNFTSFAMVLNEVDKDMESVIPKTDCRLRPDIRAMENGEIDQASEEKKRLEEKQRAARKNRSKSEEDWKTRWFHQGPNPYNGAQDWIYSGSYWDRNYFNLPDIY
# Method: Effect of spirooxepinoindoles on intrinsic protein fluorescence
# Figure S12: Spirooxepinoindoles 21a and 15f affect intrinsic protein fluorescence in dose-dependent fashion:
# Respective proteins (1 µM) were incubated with the compounds at different doses. Proteins were excited at 280 ± 10 nm and fluorescence spectra were measured from 315 ± 20 nm to 600 ± 20 nm with a step size of 2 nm. A) STARD1 and 21a. B) ORP1 and 21a. C) ORP2 and 21a. D) ORP2 and 15f.
# (1 picture or pasted object on this page, not shown here)
# Superdex 75 pg (Cytiva) using an ÄKTA Explorer (Cytiva) in buffer containing 10 mM Tris -HCl, pH 8, 150 mM NaCl, 5 % glycerol and 2 mM DTT.
# Fluorescence intensity and polarisation
# Fluorescence intensity and polarisation (FP) experiments were performed in a buffer containing 20 mM HEPES pH 7.5, 300 mM NaCl, 0.01 %v/v Tween-20, 0.5% glycerol and 2 mM DTT in a final volume of 30 µl in black, flat-bottom, non-binding 384-well plates (Corning). All compounds were dispensed using the LabCyte Echo 550 Liquid handler. […] For competition experiments, 20 nM 22-NBD-cholesterol or 80 nM 25-NBD-cholesterol was mixed with protein and incubated with desired concentrations of screening compounds (Table S4) The fluorescence polarisation signal was measured using a Spark Cyto multimode microplate reader (Tecan) with filters set at 485 ± 20 nm for excitation and at 535 ± 20 nm for emission. […]
Structure (SMILES),"Stability in FP assay buffer (no sign of degradation) ([1]; 20 mM HEPES, 300 mM NaCl, 0.01 %v/v Tween-20, 0.5 %v/v glycerol, 2 mM DTT, 1.7 mM) [h]",Stability in dimethyl sulfoxide (no sign of degradation) ([1]; DMSO stock solution),Quenching of intrinsic fluorescence of ORP1 [2]
C[C@]12CC[C@@H]3C[C@H]1CC[C@@]21C(=Nc2ccc(Br)cc21)O3 (racemic) [Compound 15b],20,several months,
C[C@]12CC[C@@H]3C[C@H]1CC[C@@]21C(=Nc2ccc(-c4ccccc4)cc21)O3 [Compound 21a],,,dose-dependently quenches
